From ChEMBL document CHEMBL1141294, “Renierosides, cerebrosides from a marine sponge Haliclona (Reniera) sp” (2007)

What was measured:
Assay type in all cases: functional
Details in all cases: read-out: ED50 (the source's name)
HCT-15 = experiment: Cytotoxicity against human HCT15 cells
SK-OV-3 = experiment: Cytotoxicity against human SK-OV-3 cells
A549 = experiment: Cytotoxicity against human A549 cells
XF498 = experiment: Cytotoxicity against human XF498 cells
SK-MEL-2 = experiment: Cytotoxicity against human SK-MEL-2 cells

Measured: EC50

CCCCCCC/C=C/C(C)=C/CC/C=C/[C@@H](O)[C@H](CO[C@@H]1O[C@H](CO)[C@@H](O)[C@H](O)[C@H]1O)NC(=O)[C@H](O)CCCCCCCCCCCCCC/C=C\CCCCCCCC [RENIEROSIDE B2]
> 10 µg/mL: all assays above

CCCCCCC/C=C/C=C/CC/C=C/[C@@H](O)[C@H](CO[C@@H]1O[C@H](CO)[C@@H](O)[C@H](O)[C@H]1O)NC(=O)[C@H](O)CCCCCCCCCCCCCCCCCCCCCC [RENIEROSIDE A5]
> 10 µg/mL: all assays above

CCCCCCC/C=C/C=C/CC/C=C/[C@@H](O)[C@H](CO[C@@H]1O[C@H](CO)[C@@H](O)[C@H](O)[C@H]1O)NC(=O)[C@H](O)CCCCCCCCCCCCCC/C=C\CCCCCCCC [RENIEROSIDE A2]
> 10 µg/mL: all assays above

CCCCCC/C=C\CCCCCCCCCCCCCCCCCC[C@@H](O)C(=O)N[C@@H](CO[C@@H]1O[C@H](CO)[C@@H](O)[C@H](O)[C@H]1O)[C@H](O)/C=C/CC/C=C/C=C/CCCCCCC [RENIEROSIDE A1]
> 10 µg/mL: all assays above

CCCCCC/C=C\CCCCCCCCCCCCCCCCCC[C@@H](O)C(=O)N[C@@H](CO[C@@H]1O[C@H](CO)[C@@H](O)[C@H](O)[C@H]1O)[C@H](O)/C=C/CC/C=C(C)/C=C/CCCCCCC [RENIEROSIDE B1]
> 10 µg/mL: all assays above

CCCCCC/C=C\CCCCCCCCCCCCCCCCC[C@@H](O)C(=O)N[C@@H](CO[C@@H]1O[C@H](CO)[C@@H](O)[C@H](O)[C@H]1O)[C@H](O)/C=C/CC/C=C(C)/C=C/CCCCCCC [RENIEROSIDE B3]
> 10 µg/mL: all assays above

CCCCCCC/C=C/C=C/CC/C=C/[C@@H](O)[C@H](CO[C@@H]1O[C@H](CO)[C@@H](O)[C@H](O)[C@H]1O)NC(=O)[C@H](O)CCCCCCCCCCCCCCCCCCCC [RENIEROSIDE A4]
> 10 µg/mL: all assays above

CCCCCCC/C=C/C=C/CC/C=C/[C@@H](O)[C@H](CO[C@@H]1O[C@H](CO)[C@@H](O)[C@H](O)[C@H]1O)NC(=O)[C@H](O)CCCCCCCCCCCCC/C=C\CCCCCCCC [RENIEROSIDE A3]
> 10 µg/mL: all assays above
